Data from ChEMBL document CHEMBL3885881, “DrugMatrix”.

Organism: Rattus norvegicus
Assay: DrugMatrix - Regimen: Daily Repeat
Format: toxicity, organism-based, Sprague-Dawley
Design: regimen Daily Repeat, gender Male, age 6-8 weeks
Conditions: in vivo, po, route oral GAVAGE, vehicle .5 % CMC; for BASOPHIL / EOSINOPHIL / ERYTHROCYTE COUNT / HEMATOCRIT / HEMOGLOBIN / LEUKOCYTE COUNT / LYMPHOCYTE / MEAN CORPUSCULAR HEMOGLOBIN / MEAN CORPUSCULAR HEMOGLOBIN CONCENTRATION / MEAN CORPUSCULAR VOLUME / MONOCYTE / NEUTROPHIL / PLATELET COUNT: tissue Blood; for ALANINE AMINOTRANSFERASE / ALBUMIN / ALKALINE PHOSPHATASE / ASPARTATE AMINOTRANSFERASE / BLOOD UREA NITROGEN / CHLORIDE / CHOLESTEROL / CREATINE PHOSPHOKINASE / CREATININE / GLUCOSE / PHOSPHORUS / POTASSIUM / SODIUM / TOTAL PROTEIN: tissue Plasma
[1] = 0 mg/kg, 72 h, dose level Control, time 3 day
[2] = 0 mg/kg, 120 h, dose level Control, time 5 day
[3] = 30 mg/kg, 72 h, dose level Low, time 3 day

## CC(=O)Oc1ccc(C(c2ccc(OC(C)=O)cc2)c2ccccn2)cc1 [BISACODYL]
[1]
  BASOPHIL: 0%
  EOSINOPHIL: 0.33%
  ERYTHROCYTE COUNT: 6.03 x10E6/uL
  HEMATOCRIT: 38.8%
  HEMOGLOBIN: 14.26 G/DL
  LEUKOCYTE COUNT: 10.64 x10E3/uL
  LYMPHOCYTE: 83.33%
  MEAN CORPUSCULAR HEMOGLOBIN: 23.64 pg
  MEAN CORPUSCULAR HEMOGLOBIN CONCENTRATION: 36.74 G/DL
  MEAN CORPUSCULAR VOLUME: 64.32 fL
  MONOCYTE: 3.33%
  NEUTROPHIL: 13%
  PLATELET COUNT: 1264.4 x10E3/uL
  ALANINE AMINOTRANSFERASE: 38.83 u/L
  ALBUMIN: 3.55 G/DL
  ALKALINE PHOSPHATASE: 368.33 u/L
  ASPARTATE AMINOTRANSFERASE: 66.17 u/L
  BLOOD UREA NITROGEN: 15.67 mg/dL
  CHLORIDE: 104.33 MEQ/L
  CHOLESTEROL: 76.5 mg/dL
  CREATINE PHOSPHOKINASE: 166.83 u/L
  CREATININE: 0.52 mg/dL
  GLUCOSE: 173.17 mg/dL
  PHOSPHORUS: 11.68 mg/dL
  POTASSIUM: 6.43 MEQ/L
  SODIUM: 149.5 MEQ/L
  TOTAL PROTEIN: 5.93 G/DL
[2]
  BASOPHIL: 0%
  EOSINOPHIL: 0%
  ERYTHROCYTE COUNT: 5.88 x10E6/uL
  HEMATOCRIT: 37.87%
  HEMOGLOBIN: 14.48 G/DL
  LEUKOCYTE COUNT: 12.43 x10E3/uL
  LYMPHOCYTE: 84.17%
  MEAN CORPUSCULAR HEMOGLOBIN: 24.65 pg
  MEAN CORPUSCULAR HEMOGLOBIN CONCENTRATION: 38.25 G/DL
  MEAN CORPUSCULAR VOLUME: 64.47 fL
  MONOCYTE: 4.33%
  NEUTROPHIL: 11.5%
  PLATELET COUNT: 1182.33 x10E3/uL
  ALANINE AMINOTRANSFERASE: 38.67 u/L
  ALBUMIN: 3.55 G/DL
  ALKALINE PHOSPHATASE: 342.5 u/L
  ASPARTATE AMINOTRANSFERASE: 63.33 u/L
  BLOOD UREA NITROGEN: 15.5 mg/dL
  CHLORIDE: 104 MEQ/L
  CHOLESTEROL: 75.5 mg/dL
  CREATINE PHOSPHOKINASE: 142.5 u/L
  CREATININE: 0.62 mg/dL
  GLUCOSE: 165.17 mg/dL
  PHOSPHORUS: 10.87 mg/dL
  POTASSIUM: 6.85 MEQ/L
  SODIUM: 150.17 MEQ/L
  TOTAL PROTEIN: 5.93 G/DL
[3]
  BASOPHIL: 0%
  EOSINOPHIL: 0%
  ERYTHROCYTE COUNT: 6.9 x10E6/uL
  HEMATOCRIT: 44.1%
  HEMOGLOBIN: 16.25 G/DL
  LEUKOCYTE COUNT: 9.75 x10E3/uL
  LYMPHOCYTE: 83%
  MEAN CORPUSCULAR HEMOGLOBIN: 23.55 pg
  MEAN CORPUSCULAR HEMOGLOBIN CONCENTRATION: 36.85 G/DL
  MEAN CORPUSCULAR VOLUME: 63.85 fL
  MONOCYTE: 4%
  NEUTROPHIL: 13%
  PLATELET COUNT: 1188.5 x10E3/uL
  ALANINE AMINOTRANSFERASE: 37.67 u/L
  ALBUMIN: 3.67 G/DL
  ALKALINE PHOSPHATASE: 281 u/L
  ASPARTATE AMINOTRANSFERASE: 63 u/L
  BLOOD UREA NITROGEN: 17 mg/dL
  CHLORIDE: 107 MEQ/L
  CHOLESTEROL: 72 mg/dL
  CREATINE PHOSPHOKINASE: 177 u/L
  CREATININE: 0.53 mg/dL
  GLUCOSE: 181 mg/dL
  PHOSPHORUS: 12.17 mg/dL
  POTASSIUM: 7.3 MEQ/L
  SODIUM: 152 MEQ/L
  TOTAL PROTEIN: 6.1 G/DL
